Measured values published in patent publication US5886022A, “Substituted cycloalkanecarboxylic acid derivatives as matrix metalloprotease inhibitors” (priority 1997, dated 1999).
Each block holds one molecule with its values, some of them ahead of it.

Tests used:
[1] = target: T1, MMP-3 (recombinant truncated stromelysin) (Homo sapiens, UniProt P08254); experiment: Primary Thiopeptilide MMP-3 Inhibition Assay; format: biochemical; conditions: x (n): average IC50 of n separate determinations
T1 construct: made in house; host or cells: E. coli
T1 sequence (P08254 100-274 limits assumed): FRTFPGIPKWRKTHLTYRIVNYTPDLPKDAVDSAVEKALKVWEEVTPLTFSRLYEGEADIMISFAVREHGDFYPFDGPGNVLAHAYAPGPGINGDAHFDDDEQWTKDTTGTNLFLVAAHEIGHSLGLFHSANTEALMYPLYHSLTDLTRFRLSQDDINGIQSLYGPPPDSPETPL

[2] = target: T2, MMP-3 (recombinant stromelysin) (Homo sapiens, UniProt P08254); experiment: Secondary P218 Quenched fluorescence Assay for MMP-3 Inhibition; format: biochemical
T2 construct: Expression and Purification of Recombinant Truncated Prostromelysin (MMP-3); made in house
T2 sequence (P08254 100-274 limits assumed): as above
From the text: Truncated Prostromelysin-257 was expressed in a soluble form in E.coli as described by Marcy et al., Biochemistry, 30, 6476-6483, 1991. Soluble truncated prostromelysin was purified by a modification of the monoclonal antibody affinity chromatography method described by Housley et al., J. Biol. Chem., 268, 4481-87, 1993.
This assay was originally described by Knight et al., FEBS Letters, 296, 263-266, 1992, for a related substrate. The assay is run continuously in a 3.Oml cuvette using a Perkin-Elmer LS 50 B Spectrofluorimeter at 25° C. in a final volume of 2.0 mls. P218 substrate (10 mM) in 100% DMSO is diluted to a final concentration of 2.0 micromolar (μM) into assay buffer: 50 mM MES, pH 6.5 containing 150 mM NaCl, 10 mM CaCl2, 0.005% Brij-35, and 1%(v/v) DMSO. Test compounds(10 mM) in DMSO are diluted in assay buffer at an initial concentration of 10 to 100 micromolar. […] The reaction is initiated by the addition of recombinant stromelysin (MMP-3) at a final concentration of 1.0 nM. Upon peptide cleavage, the fluorescent MCA group was detected using an excitation wavelength of 328 nanometers and an emission wavelength of 393 nanometers. The assay is linear from 0.2 to 5 nM MMP-3 concentration and percent inhibition is calculated as described above for the primary thiopeptilide assay and IC50 values are determined by a linear regression analysis of percent inhibition versus log drug concentration. The peptide sequence of the MCA substrate, hereinafter esignated P218, is shown below:
MCA-Pro-Lys-Pro-Leu-Ala-Leu-DPA-Ala-Arg-NH2 P218
(§1) All IC50 values are expressed as nM. When "I=x %" is shown, x presents the % inhibition at 5 μM. When "x (n)" is shown, x is the erage IC50 value of n separate determinations.

[3] = target: T3, MMP-9 (Gelatinase-B, 92 kDa) (Homo sapiens, UniProt P14780); experiment: Thiopeptilide MMP-9 Inhibition Assay; format: biochemical; conditions: x (n): average IC50 of n separate determinations
T3 construct: from tissue; host or cells: human polymorphonuclear leukocytes from fresh whole blood (New York Blood Center), PMA-stimulated supernatant, purified
T3 sequence (P14780 107-707 limits assumed): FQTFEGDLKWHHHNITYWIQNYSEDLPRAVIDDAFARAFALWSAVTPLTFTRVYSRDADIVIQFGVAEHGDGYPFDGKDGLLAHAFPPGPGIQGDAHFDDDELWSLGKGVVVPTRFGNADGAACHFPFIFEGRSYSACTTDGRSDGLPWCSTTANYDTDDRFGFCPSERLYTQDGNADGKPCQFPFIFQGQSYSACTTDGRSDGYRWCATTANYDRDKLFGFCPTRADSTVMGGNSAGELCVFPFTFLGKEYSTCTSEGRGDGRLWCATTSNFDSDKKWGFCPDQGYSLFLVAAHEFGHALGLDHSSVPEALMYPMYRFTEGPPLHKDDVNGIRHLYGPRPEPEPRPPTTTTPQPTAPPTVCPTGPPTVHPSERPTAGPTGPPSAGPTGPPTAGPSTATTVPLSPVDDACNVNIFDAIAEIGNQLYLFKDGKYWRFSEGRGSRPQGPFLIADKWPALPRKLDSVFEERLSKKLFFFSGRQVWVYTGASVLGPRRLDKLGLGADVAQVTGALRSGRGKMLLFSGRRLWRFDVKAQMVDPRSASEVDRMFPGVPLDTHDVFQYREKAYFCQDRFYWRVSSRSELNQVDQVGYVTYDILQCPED
Method: MMP-9 was isolated modifying the previously described procedures of Hibbs et al (J. Biol. Chem., 260, 2493-2500, 1984) and Wilhelm et al (J. Biol. Chem., 264, 17213-17221, 1989). Briefly, polymorphonuclear leukocytes (PMN) preparations were isolated as described above from 3 or more units of freshly drawn whole blood obtained from the New York Blood Center (N.Y., N.Y.). Cells were resuspended in phosphate buffered saline (PBS) containing 100 ng/ml phorbol myristate acetate (PMA) in the presence of 50 mM di-isopropylfluorophospate (DFP), 1 μg/ml leupeptin and aprotinin, and 1 mg/ml catalase for 1 hr at 37° C. Supernatants were collected by centrifugation (300×g) and the samples were frozen at -70° C. All chromatographic methods were performed at 4° C. Thawed samples were concentrated 5-fold using an Amicon chamber equipped with a YM-10 membrane. The concentrate was pressure dialyzed against 0.02M Tris-HCl, 0.1M NaCl, 1 mM CaCl2, 1 μM ZnCl2, 0.001 % Brij-35, 0.02% sodium azide (NaN3), pH 7.5 and applied to DEAE ion exchange chromatography resin which was previously equilibrated with the same buffer at a flow rate of 0.4 ml/min. The column was extensively washed with the same buffer and gelatinase was eluted as 4 ml fractions from the column with 0.02M Tris-HCl, 0.5M NaCl, 1 mM CaCl2, 1 μM ZnCl2, 0.001% Brij-35, 0.02% NaN3, pH 7.5. Gelatinase containing fractions were observed by gelatin zymography (see below), loaded onto a gelatin agarose affinity resin and washed with the same buffer. Gelatinase activity was eluted at a flow rate of 1 ml/min from the column as 1 ml fractions with 0.02M Tris-HCl, 1M NaCl, 1 mM CaCl2, 1 μmM ZnCl2, 0.001% Brij-35, 0.02% NaN3, pH 7.5 containing 10% dimethyl sulfoxide (DMSO). The fractions containing gelatinase activity were pooled and dialyzed against 0.005M Tris-HCl, 5 mM NaCl, 0.5 mM CaCl2, 0.1 μM ZnCl2, 0.001% Brij-35, pH 7.4. The protein content associated with material was determined with a micro-BCA assay (Pierce, Rockford, Ill.), lyophilized and reconstituted to a desired working concentration (100 μg/ml).
Progelatinase (10 μg/ml) isolated from human PMNs (described above) was activated with 1 mM 4-aminophenylmercuric acetate (APMA) in 50 mM Tris-HCl, 200 mM NaCl, 5 mM CaCl2, 0.001% Brij-35, pH 7.6 at 37° C. for 16 hr. The activated enzyme was dialyzed against the above buffer to remove APMA. The thiopeptolide spectrophotometric ( Weingarten, H., Feder, J., Anal. Biochem., 147, 437-440, 1985) substrate hydrolysis assay was modified to a micro-assay format. Spectrophotometric analysis of MMP-9 activity required a 1000-fold dilution of activated MMP-9 (10 ng/ml, 0.14 nM) in assay buffer comprised of 50 mM 4-(2-hydroxyethyl)1-piperazine ethane sulfonic acid (HEPES), 0.15M NaCl, 10 mM CaCl2, 0.001% Brij-35, pH 6.5 between 100 and 1000-fold for enzyme assays. Reaction mixtures for inhibitor studies contained 1 mM Ac-Pro-Leu-Gly-S-Leu-Leu-Gly-o-ethyl thiopeptolide substrate dissolved in HEPES assay buffer pH 6.5, along with 0.5 mM 5,5'-dithio-bis-(nitrobenzoicacid), drug concentrations ranging from 0.5 nM to 5 μM and activated enzyme (10-100 ng) in a total volume of 130 μl. The hydrolysis of substrate was monitored at 405 nm using an automated plate reader (Molecular Devices, Menlo Park, Calif.). Enzyme mediated substrate hydrolysis was corrected for non-enzymatic hydrolysis of the substrate by the subtraction of values from control samples incubated in the absence of enzyme. Drug efficacy was reported as the percent inhibition of enzyme activity calculated as:
(Control Values-Treated Values)/Control Values×100
Two way analysis of variance was used to determine significance between individual test groups.
as §1

[4] = fenbufen analogs, literature; cited from earlier work

IC50 [1]: 26 nM | IC50 ([2]; P218 substrate, x (n): average IC50 of n separate determinations, read-out: MMP-3 Fluorogenic IC50): 12 nM | IC50 [3]: 25 nM
Molecule: O=C(O)[C@@H]1[C@@H](C(=O)c2ccc(-c3ccc(Cl)cc3)cc2)CC[C@H]1Sc1ccccc1 (single isomer, unassigned) [Example 211, Cyclopentanecarboxylic acid, 2-[(4'-chloro[1,1'-biphenyl]-4-yl)carbonyl]-5-(phenylthio)-, [1S-(1α,2β,5β)]-]

Molecule: MCA-Pro-Lys-Pro-Leu-Ala-Leu-DPA-Ala-Arg-NH2 [Example P218, reference compound]
cat/Km value of substrate for MMP-3 ([2]; pH 6.5): 56,000 M^-1 sec^-1 | Km ([2]; pH 6.5, read-out: Km of substrate for MMP-3): 16 µM

Molecule: CC(CC(=O)c1ccc(-c2ccccc2)cc1)C(=O)O (stereo not shown) [XLVIII]
activity in words [4]: inactive

Molecule: O=C(O)CC(C(=O)c1ccc(-c2ccccc2)cc1)c1ccccc1 (stereo not shown) [LXXVII]
activity in words [4]: inactive
